Measurements as given in patent publication US12077503B2, “Substituted cyclic amides and their use as herbicides” (FMC CORPORATION, priority 2015, dated 2024).

Tests used:
Type in all cases: in vivo
Kochia (Kochia scoparia) [1] = experiment: Test A preemergence; conditions: preemergence
Procedure, shortened: (§1)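 Compounds were formulated in a non-phytotoxic solvent mixture with surfactant and applied as a preemergence directed soil spray after seeding, or sprayed postemergence over plants 2 to 10 cm tall at the one- to two-leaf stage. Evaluation after about 10 d compared treated with untreated controls, using a scale from 0 (no effect) to 100 (complete control).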

[2] = test system: barnyardgrass (Echinochloa crus-galli); experiment: Test A preemergence; conditions: preemergence
Procedure, shortened: as §1

[3] = test system: giant foxtail (Setaria faberii); experiment: Test A preemergence; conditions: preemergence
Procedure, shortened: as §1

[4] = test system: pigweed (Amaranthus retroflexus); experiment: Test A preemergence; conditions: preemergence
[5] = test system: ragweed (common ragweed, Ambrosia elatior); experiment: Test A preemergence; conditions: preemergence
Procedure, shortened: as §1

[6] = test system: ryegrass, Italian (Italian ryegrass, Lolium multiflorum); experiment: Test A preemergence; conditions: preemergence
Procedure, shortened: as §1

[7] = test system: Galium (catchweed bedstraw, Galium aparine); experiment: Test A postemergence; conditions: postemergence, 0 to 100 scale (0 no effect, 100 complete control)
Procedure, shortened: as §1

Kochia (Kochia scoparia) [8] = experiment: Test A postemergence; conditions: postemergence, 0 to 100 scale (0 no effect, 100 complete control)
Procedure, shortened: as §1

[9] = test system: barnyardgrass (Echinochloa crus-galli); experiment: Test A postemergence; conditions: postemergence, 0 to 100 scale (0 no effect, 100 complete control)
Procedure, shortened: as §1

[10] = test system: blackgrass (Alopecurus myosuroides); experiment: Test A postemergence; conditions: postemergence, 0 to 100 scale (0 no effect, 100 complete control)
Procedure, shortened: as §1

corn (Zea mays) = experiment: Test A postemergence; conditions: postemergence, 0 to 100 scale (0 no effect, 100 complete control)
Procedure, shortened: as §1

[11] = test system: giant foxtail (Setaria faberii); experiment: Test A postemergence; conditions: postemergence, 0 to 100 scale (0 no effect, 100 complete control)
Procedure, shortened: as §1

[12] = test system: pigweed (Amaranthus retroflexus); experiment: Test A postemergence; conditions: postemergence, 0 to 100 scale (0 no effect, 100 complete control)
Procedure, shortened: as §1

[13] = test system: ragweed (common ragweed, Ambrosia elatior); experiment: Test A postemergence; conditions: postemergence, 0 to 100 scale (0 no effect, 100 complete control)
Procedure, shortened: as §1

[14] = test system: ryegrass, Italian (Italian ryegrass, Lolium multiflorum); experiment: Test A postemergence; conditions: postemergence, 0 to 100 scale (0 no effect, 100 complete control)
Procedure, shortened: as §1

[15] = test system: wheat (Triticum aestivum); experiment: Test A postemergence; conditions: postemergence, 0 to 100 scale (0 no effect, 100 complete control)
Procedure, shortened: as §1

[16] = test system: barnyardgrass (Echinochloa crus-galli); experiment: Test B flooded paddy test; conditions: Flood, 500 g ai/ha; 0 to 100 scale where 0 is no effect and 100 is complete control; 13 to 15 d
Procedure, shortened: (§2)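 Greenhouse paddy pots with 2-leaf stage plants received compound by direct addition to floodwater 3 cm deep, kept at that level. Scored visually at 13–15 d versus controls (0 no effect; 100 complete control).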

[17] = test system: ducksalad (Heteranthera limosa); experiment: Test B flooded paddy test; conditions: Flood, 500 g ai/ha; 0 to 100 scale where 0 is no effect and 100 is complete control; 13 to 15 d
Procedure, shortened: as §2

rice (Oryra sativa) = experiment: Test B flooded paddy test; conditions: Flood, 500 g ai/ha; 0 to 100 scale where 0 is no effect and 100 is complete control; 13 to 15 d
Procedure, shortened: as §2

[18] = test system: sedge, umbrella (small-flower umbrella sedge, Cyperus difformis); experiment: Test B flooded paddy test; conditions: Flood, 500 g ai/ha; 0 to 100 scale where 0 is no effect and 100 is complete control; 13 to 15 d
Procedure, shortened: as §2

[19] = test system: ragweed (common ragweed, Ambrosia elatior); experiment: Test C preemergence; conditions: for Plant response rating (scale of 0 to 100), Ragweed: 31 g ai/ha, 0 is no effect, 100 is complete control; for Plant response rating, Ragweed: scale 0 to 100, 0 no effect, 100 complete control
Description: Seeds of plant species selected from blackgrass (Alopecurus myosuroides), ryegrass, Italian (Italian ryegrass, Lolium multiflorum), wheat (winter wheat, Triticum aestivum), Galium (catchweed bedstraw, Galium aparine), corn (Zea mays), crabgrass, large (large crabgrass, Digitaria sanguinalis), foxtail, giant (giant foxtail, Setaria faberii), johnsongrass (Sorghum halepense), lambsquarters (Chenopodium album), morningglory (Ipomoea coccinea), nutsedge, yellow (yellow nutsedge, Cyperus esculentus), pigweed (Amaranthus retroflexus), ragweed (common ragweed, Ambrosia elatior), soybean (Glycine max), barnyardgrass (Echinochloa crus-galli), oilseed rape (Brassica napus), waterhemp (common waterhemp, Amaranthus rudis) and velvetleaf (Abutilon theophrasti) were planted into a blend of loam soil and sand and treated preemergence with test chemicals formulated in a non-phytotoxic solvent mixture which included a surfactant.
At the same time, plants selected from these crop and weed species and also Kochia (Kochia scoparia), oat, wild (wild oat, Avena fatua), and chickweed (common chickweed, Stellaria media) were planted in pots containing Sunshine Redi-Earth® planting medium comprising spaghnum peat moss, vermiculite, starter nutrients and dolomitic limestone and treated with postemergence applications of test chemicals formulated in the same manner. Plants ranged in height from 2 to 18 cm (1- to 4-leaf stage) for postemergence treatments. Treated plants and controls were maintained in a greenhouse for 13 to 15 d, after which time all species were compared to controls and visually evaluated. Plant response ratings, summarized in Table C, are based on a scale of 0 to 100 where 0 is no effect and 100 is complete control. A dash (-) response means no test result.

[20] = 125 g ai/ha, visual rating after approx. 10 d, 0 to 100 scale where 0 is no effect and 100 is complete control
[21] = 500 g ai/ha, 0 to 100 scale, 0 = no effect, 100 = complete control
[22] = 125 g ai/ha, visual injury after approximately 10 d
[23] = 500 g ai/ha, visual injury, approx. 10 d

Row | Compound | Plant response rating, Kochia (Kochia (Kochia scoparia) [1]; [20]) | Plant response rating, Kochia (Kochia (Kochia scoparia) [1]; [21]) | Plant response rating, Barnyardgrass [2, 20] | Plant response rating, Barnyardgrass [2, 21] | Plant response rating, Foxtail, Giant [3, 20] | Plant response rating, Foxtail, Giant [3, 21] | Plant response rating, Pigweed [4, 20] | Plant response rating, Pigweed [4, 21] | Plant response rating, Ragweed [5, 20] | Plant response rating, Ragweed [5, 21] | Plant response rating, Ryegrass, Italian [6, 20] | Plant response rating, Ryegrass, Italian [6, 21] | Plant response rating, Galium [7, 22] | Plant response rating, Galium [7, 23] | Plant response rating, Kochia (Kochia (Kochia scoparia) [8]; [22]) | Plant response rating, Kochia (Kochia (Kochia scoparia) [8]; [23]) | Plant response rating, Barnyardgrass [9, 22] | Plant response rating, Barnyardgrass [9, 23] | Plant response rating, Blackgrass [10, 22] | Plant response rating, Blackgrass [10, 23] | further results
1 | O=C1NCC(c2cccc(OC(F)(F)C(F)F)c2)C1C(=O)Nc1cccc(F)c1F (racemic) [Compound 697] | 30 | 80 | 90 | 90 | 90 | 90 | 50 | 50 | 50 | 60 | 40 | 50 | 50 | 50 | 60 | 60 | 80 | 90 | 30 | 40 | Plant response rating, Corn (corn (Zea mays); [22]): 70; Plant response rating, Corn (corn (Zea mays); [23]): 80; Plant response rating, Foxtail, Giant [11, 22]: 80; Plant response rating, Foxtail, Giant [11, 23]: 80; Plant response rating, Pigweed [12, 22]: 50; Plant response rating, Pigweed [12, 23]: 50; Plant response rating, Ragweed [13, 22]: 30; Plant response rating, Ragweed [13, 23]: 50; Plant response rating, Ryegrass, Italian [14, 22]: 20; Plant response rating, Ryegrass, Italian [14, 23]: 30; Plant response rating, Wheat [15, 22]: 20; Plant response rating, Wheat [15, 23]: 40; Plant response rating, Barnyardgrass [16]: 90; Plant response rating, Ducksalad [17]: 90; Plant response rating, Rice (rice (Oryra sativa)): 0; Plant response rating, Sedge, Umbrella [18]: 0; Plant response rating (scale of 0 to 100), Ragweed [19]: 60; Plant response rating, Ragweed ([19]; 62 g ai/ha): 80; Plant response rating, Ragweed ([19]; 125 g ai/ha): 80; Plant response rating, Ragweed ([19]; 250 g ai/ha): 80
2 | O=C1NCC(c2cccc(OC(F)(F)C(F)F)c2)C1C(=O)Nc1ccc(F)c(F)c1F (racemic) [Compound 698] | 50 | 40 | 80 | 90 | 90 | 90 | 50 | 50 | 0 | 50 | 30 | 60 | 50 | 50 | 50 | 60 | 70 | 80 | 30 | 40 | Plant response rating, Corn (corn (Zea mays); [22]): 80; Plant response rating, Corn (corn (Zea mays); [23]): 80; Plant response rating, Foxtail, Giant [11, 22]: 80; Plant response rating, Foxtail, Giant [11, 23]: 80; Plant response rating, Pigweed [12, 22]: 40; Plant response rating, Pigweed [12, 23]: 60; Plant response rating, Ragweed [13, 22]: 20; Plant response rating, Ragweed [13, 23]: 40; Plant response rating, Ryegrass, Italian [14, 22]: 30; Plant response rating, Ryegrass, Italian [14, 23]: 30; Plant response rating, Wheat [15, 22]: 30; Plant response rating, Wheat [15, 23]: 40; Plant response rating, Barnyardgrass [16]: 50; Plant response rating, Ducksalad [17]: 90; Plant response rating, Rice (rice (Oryra sativa)): 0; Plant response rating, Sedge, Umbrella [18]: 0; Plant response rating (scale of 0 to 100), Ragweed [19]: 70; Plant response rating, Ragweed ([19]; 62 g ai/ha): 40; Plant response rating, Ragweed ([19]; 125 g ai/ha): 40; Plant response rating, Ragweed ([19]; 250 g ai/ha): 55
3 | O=C1NCC(c2ccc(I)cc2)C1C(=O)Nc1cccc(F)c1F (racemic) [Compound 700] | 30 | 70 | 90 | 90 | 90 | 90 | 40 | 60 | 0 | 60 | 0 | 30 | 40 | 60 | 30 | 60 | 70 | 70 | 0 | 50 | Plant response rating, Corn (corn (Zea mays); [22]): 0; Plant response rating, Corn (corn (Zea mays); [23]): 70; Plant response rating, Foxtail, Giant [11, 22]: 70; Plant response rating, Foxtail, Giant [11, 23]: 90; Plant response rating, Pigweed [12, 22]: 0; Plant response rating, Pigweed [12, 23]: 30; Plant response rating, Ragweed [13, 22]: 20; Plant response rating, Ragweed [13, 23]: 30; Plant response rating, Ryegrass, Italian [14, 22]: 30; Plant response rating, Ryegrass, Italian [14, 23]: 40; Plant response rating, Wheat [15, 22]: 0; Plant response rating, Wheat [15, 23]: 60; Plant response rating, Barnyardgrass [16]: 85; Plant response rating, Ducksalad [17]: 100; Plant response rating, Rice (rice (Oryra sativa)): 0; Plant response rating, Sedge, Umbrella [18]: 0; Plant response rating (scale of 0 to 100), Ragweed [19]: 10; Plant response rating, Ragweed ([19]; 62 g ai/ha): 50; Plant response rating, Ragweed ([19]; 125 g ai/ha): 75; Plant response rating, Ragweed ([19]; 250 g ai/ha): 75
